Laboratory results published in patent US12343326B2, “Psychoactive medicines and their use for treating psychiatric and neurological conditions and disorders” (Transcend Therapeutics, Inc., priority 2021, dated 2025).

What was measured:
Experiment in all cases: β-arrestin based GPCR screen (PathHunter / GPCRmax), antagonist mode
168 GPCRs [1] = molecular target: 168 GPCRs (Homo sapiens, UniProt P25090)
168 GPCRs [2] = molecular target: 168 GPCRs (Homo sapiens, UniProt P25116); details: F2F, Antagonist mode, 10 uM
168 GPCRs [3] = molecular target: 168 GPCRs (Homo sapiens, UniProt Q96LB1)
168 GPCRs [4] = molecular target: 168 GPCRs (Homo sapiens, UniProt P25116); details: F2R; Antagonist; 1 uM
168 GPCRs [5] = molecular target: 168 GPCRs (Homo sapiens, UniProt P48039); details: MTNR1A
168 GPCRs [6] = molecular target: 168 GPCRs (Homo sapiens, UniProt P14416); details: DRD2L
168 GPCRs [7] = molecular target: 168 GPCRs (Homo sapiens, UniProt P35462)
168 GPCRs [8] = molecular target: 168 GPCRs (Homo sapiens, UniProt P21917)
168 GPCRs [9] = molecular target: 168 GPCRs (Homo sapiens, UniProt P41231)
168 GPCRs [10] = molecular target: 168 GPCRs (Homo sapiens, UniProt P25024)
168 GPCRs [11] = molecular target: 168 GPCRs (Homo sapiens, UniProt P35414); details: AGTRL1, Antagonist
168 GPCRs [12] = molecular target: 168 GPCRs (Homo sapiens, UniProt Q9HBW0)
168 GPCRs [13] = molecular target: 168 GPCRs (Homo sapiens, UniProt Q9HC97)
168 GPCRs [14] = molecular target: 168 GPCRs (Homo sapiens, UniProt Q9HB89); details: NMU1R
168 GPCRs [15] = molecular target: 168 GPCRs (Homo sapiens, UniProt Q9H1C0)
168 GPCRs [16] = molecular target: 168 GPCRs (Homo sapiens, UniProt P30518); details: AVPR2, Antagonist
168 GPCRs [17] = molecular target: 168 GPCRs (Homo sapiens, UniProt P08908); details: HTR1A
168 GPCRs [18] = molecular target: 168 GPCRs (Homo sapiens, UniProt P11229); details: CHRM1, Antagonist
168 GPCRs [19] = molecular target: 168 GPCRs (Homo sapiens, UniProt P49019); details: GPR109B
168 GPCRs [20] = molecular target: 168 GPCRs (Homo sapiens, UniProt P32238); details: CCKAR, Antagonist
168 GPCRs [21] = molecular target: 168 GPCRs (Homo sapiens, UniProt Q99500)
168 GPCRs [22] = molecular target: 168 GPCRs (Homo sapiens, UniProt P51681); details: CCR5, CCR5, Antagonist
168 GPCRs [23] = molecular target: 168 GPCRs (Homo sapiens, UniProt P37288); details: AVPR1A, Antagonist
168 GPCRs [24] = molecular target: 168 GPCRs (Homo sapiens, UniProt P28336); details: NMBR

168 GPCRs (Homo sapiens, UniProt P48039), sequence (P48039 whole entry): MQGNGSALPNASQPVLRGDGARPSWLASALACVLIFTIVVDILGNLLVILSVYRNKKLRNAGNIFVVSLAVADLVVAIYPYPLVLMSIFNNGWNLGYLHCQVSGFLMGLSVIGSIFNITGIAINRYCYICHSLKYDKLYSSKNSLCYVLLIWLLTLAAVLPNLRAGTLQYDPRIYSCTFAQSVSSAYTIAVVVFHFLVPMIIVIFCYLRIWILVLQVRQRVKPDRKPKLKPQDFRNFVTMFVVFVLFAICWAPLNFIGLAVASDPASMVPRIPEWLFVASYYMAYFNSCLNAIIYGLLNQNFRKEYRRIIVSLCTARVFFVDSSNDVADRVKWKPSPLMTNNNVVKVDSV
168 GPCRs (Homo sapiens, UniProt P51681), sequence (P51681 whole entry): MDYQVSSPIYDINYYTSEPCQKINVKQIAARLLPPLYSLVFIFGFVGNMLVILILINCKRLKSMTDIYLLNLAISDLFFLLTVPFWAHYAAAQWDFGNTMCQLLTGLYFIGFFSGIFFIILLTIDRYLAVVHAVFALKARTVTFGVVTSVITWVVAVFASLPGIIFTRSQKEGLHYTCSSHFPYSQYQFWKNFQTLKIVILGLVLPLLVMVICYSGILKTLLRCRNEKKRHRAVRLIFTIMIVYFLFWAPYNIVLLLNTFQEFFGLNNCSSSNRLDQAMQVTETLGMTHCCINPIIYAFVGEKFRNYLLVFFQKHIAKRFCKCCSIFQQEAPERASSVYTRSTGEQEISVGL
168 GPCRs (Homo sapiens, UniProt Q99500), sequence (Q99500 whole entry): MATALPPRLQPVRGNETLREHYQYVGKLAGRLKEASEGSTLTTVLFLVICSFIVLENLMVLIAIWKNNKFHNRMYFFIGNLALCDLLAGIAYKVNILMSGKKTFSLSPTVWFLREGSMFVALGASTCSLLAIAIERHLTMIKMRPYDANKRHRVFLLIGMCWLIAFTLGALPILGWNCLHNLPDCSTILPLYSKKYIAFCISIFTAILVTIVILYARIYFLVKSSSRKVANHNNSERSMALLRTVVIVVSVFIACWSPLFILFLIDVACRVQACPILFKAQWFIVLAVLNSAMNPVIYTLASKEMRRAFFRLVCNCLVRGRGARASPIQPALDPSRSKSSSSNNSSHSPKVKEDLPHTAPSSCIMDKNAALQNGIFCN
168 GPCRs (Homo sapiens, UniProt Q9HC97), sequence (Q9HC97 whole entry): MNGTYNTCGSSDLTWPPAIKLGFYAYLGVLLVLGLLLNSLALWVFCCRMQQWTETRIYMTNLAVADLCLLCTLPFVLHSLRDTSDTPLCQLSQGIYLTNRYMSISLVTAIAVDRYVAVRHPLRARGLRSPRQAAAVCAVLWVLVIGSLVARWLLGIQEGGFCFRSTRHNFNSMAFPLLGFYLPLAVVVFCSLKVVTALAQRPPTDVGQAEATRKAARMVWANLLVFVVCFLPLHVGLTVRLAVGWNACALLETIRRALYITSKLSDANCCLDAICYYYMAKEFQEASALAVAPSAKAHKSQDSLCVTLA
168 GPCRs (Homo sapiens, UniProt P37288), sequence (P37288 whole entry): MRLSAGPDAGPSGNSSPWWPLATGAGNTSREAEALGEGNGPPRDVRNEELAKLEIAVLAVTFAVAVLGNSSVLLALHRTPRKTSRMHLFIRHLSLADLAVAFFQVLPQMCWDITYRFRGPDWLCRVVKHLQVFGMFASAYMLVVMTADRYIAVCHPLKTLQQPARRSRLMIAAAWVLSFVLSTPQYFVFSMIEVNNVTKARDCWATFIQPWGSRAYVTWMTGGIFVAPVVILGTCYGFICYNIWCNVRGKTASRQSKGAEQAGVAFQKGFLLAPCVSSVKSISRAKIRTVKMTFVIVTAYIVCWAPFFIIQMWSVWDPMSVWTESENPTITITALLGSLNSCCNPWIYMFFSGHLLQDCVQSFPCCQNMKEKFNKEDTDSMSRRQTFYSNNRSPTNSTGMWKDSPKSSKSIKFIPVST
168 GPCRs (Homo sapiens, UniProt P11229), sequence (P11229 whole entry): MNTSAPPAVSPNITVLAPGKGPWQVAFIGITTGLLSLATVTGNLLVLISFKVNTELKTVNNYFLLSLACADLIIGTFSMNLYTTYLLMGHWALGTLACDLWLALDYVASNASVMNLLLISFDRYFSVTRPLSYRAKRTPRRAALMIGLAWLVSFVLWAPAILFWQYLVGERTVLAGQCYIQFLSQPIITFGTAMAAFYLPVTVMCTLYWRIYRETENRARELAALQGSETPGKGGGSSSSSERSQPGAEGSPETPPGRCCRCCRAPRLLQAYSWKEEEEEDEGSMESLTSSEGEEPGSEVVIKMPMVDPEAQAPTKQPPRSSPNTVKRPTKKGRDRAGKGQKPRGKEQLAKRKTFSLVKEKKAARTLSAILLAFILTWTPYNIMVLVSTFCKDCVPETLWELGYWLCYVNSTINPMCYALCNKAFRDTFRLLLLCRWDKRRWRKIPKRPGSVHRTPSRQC
168 GPCRs (Homo sapiens, UniProt Q96LB1), sequence (Q96LB1 whole entry): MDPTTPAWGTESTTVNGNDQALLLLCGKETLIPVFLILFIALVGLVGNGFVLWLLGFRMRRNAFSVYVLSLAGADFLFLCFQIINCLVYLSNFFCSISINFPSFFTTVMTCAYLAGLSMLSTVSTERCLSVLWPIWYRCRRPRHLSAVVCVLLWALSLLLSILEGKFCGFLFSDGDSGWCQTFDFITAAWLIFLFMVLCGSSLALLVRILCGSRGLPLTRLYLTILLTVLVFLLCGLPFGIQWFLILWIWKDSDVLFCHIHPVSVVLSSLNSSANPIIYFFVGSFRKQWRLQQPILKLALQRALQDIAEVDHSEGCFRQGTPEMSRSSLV
168 GPCRs (Homo sapiens, UniProt P30518), sequence (P30518 whole entry): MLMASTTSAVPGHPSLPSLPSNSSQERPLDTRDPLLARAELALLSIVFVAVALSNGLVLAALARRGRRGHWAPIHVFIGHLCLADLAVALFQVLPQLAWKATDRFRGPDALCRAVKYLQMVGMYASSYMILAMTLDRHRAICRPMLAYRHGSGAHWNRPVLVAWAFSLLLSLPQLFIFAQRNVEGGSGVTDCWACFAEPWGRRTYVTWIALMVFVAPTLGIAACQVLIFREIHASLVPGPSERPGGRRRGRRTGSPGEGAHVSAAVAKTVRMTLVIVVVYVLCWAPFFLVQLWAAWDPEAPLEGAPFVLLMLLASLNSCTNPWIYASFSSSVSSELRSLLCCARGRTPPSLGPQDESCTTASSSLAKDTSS
168 GPCRs (Homo sapiens, UniProt P49019), sequence (P49019 whole entry): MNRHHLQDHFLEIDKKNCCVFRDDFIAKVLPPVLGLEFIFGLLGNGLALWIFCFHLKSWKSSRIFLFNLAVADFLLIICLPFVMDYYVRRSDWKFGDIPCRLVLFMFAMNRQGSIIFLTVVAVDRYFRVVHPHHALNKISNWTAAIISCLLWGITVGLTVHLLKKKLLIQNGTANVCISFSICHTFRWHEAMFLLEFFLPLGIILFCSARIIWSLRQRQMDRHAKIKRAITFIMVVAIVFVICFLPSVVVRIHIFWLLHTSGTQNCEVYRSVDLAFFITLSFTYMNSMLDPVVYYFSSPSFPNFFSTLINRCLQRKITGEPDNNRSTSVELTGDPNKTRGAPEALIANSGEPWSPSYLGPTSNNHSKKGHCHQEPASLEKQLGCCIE
168 GPCRs (Homo sapiens, UniProt Q9HB89), sequence (Q9HB89 whole entry): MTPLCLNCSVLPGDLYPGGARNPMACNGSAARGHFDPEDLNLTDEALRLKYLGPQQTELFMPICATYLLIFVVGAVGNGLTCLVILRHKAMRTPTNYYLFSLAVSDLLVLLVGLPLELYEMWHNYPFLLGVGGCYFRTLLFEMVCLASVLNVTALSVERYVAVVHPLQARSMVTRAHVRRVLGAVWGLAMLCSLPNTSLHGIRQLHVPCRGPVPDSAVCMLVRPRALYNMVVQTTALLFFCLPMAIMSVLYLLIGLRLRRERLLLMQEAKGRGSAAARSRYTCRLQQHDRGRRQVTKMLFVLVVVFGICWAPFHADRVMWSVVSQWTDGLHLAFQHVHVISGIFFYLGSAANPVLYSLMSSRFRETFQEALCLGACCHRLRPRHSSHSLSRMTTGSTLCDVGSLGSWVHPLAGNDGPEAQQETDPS
168 GPCRs (Homo sapiens, UniProt Q9HBW0), sequence (Q9HBW0 whole entry): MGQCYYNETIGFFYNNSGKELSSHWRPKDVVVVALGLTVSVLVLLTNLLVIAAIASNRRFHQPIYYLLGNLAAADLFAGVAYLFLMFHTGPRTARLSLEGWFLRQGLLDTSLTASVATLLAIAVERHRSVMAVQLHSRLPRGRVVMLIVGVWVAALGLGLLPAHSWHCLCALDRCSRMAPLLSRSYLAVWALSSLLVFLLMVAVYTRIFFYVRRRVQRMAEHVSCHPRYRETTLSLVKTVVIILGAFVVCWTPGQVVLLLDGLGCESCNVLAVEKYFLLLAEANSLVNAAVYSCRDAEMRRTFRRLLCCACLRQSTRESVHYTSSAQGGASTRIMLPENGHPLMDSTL
168 GPCRs (Homo sapiens, UniProt P35462), sequence (P35462 whole entry): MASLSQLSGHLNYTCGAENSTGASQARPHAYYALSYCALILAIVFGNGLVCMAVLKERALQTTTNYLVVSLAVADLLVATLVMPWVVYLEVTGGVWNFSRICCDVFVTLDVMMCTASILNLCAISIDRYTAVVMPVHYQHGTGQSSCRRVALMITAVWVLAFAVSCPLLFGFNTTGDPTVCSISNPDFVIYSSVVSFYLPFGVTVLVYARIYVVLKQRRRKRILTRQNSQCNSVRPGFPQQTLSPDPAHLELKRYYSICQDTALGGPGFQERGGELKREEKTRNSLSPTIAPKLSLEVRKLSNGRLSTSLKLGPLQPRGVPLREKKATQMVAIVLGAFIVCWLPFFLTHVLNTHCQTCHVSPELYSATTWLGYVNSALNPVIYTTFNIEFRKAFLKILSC
168 GPCRs (Homo sapiens, UniProt P25090), sequence (P25090 whole entry): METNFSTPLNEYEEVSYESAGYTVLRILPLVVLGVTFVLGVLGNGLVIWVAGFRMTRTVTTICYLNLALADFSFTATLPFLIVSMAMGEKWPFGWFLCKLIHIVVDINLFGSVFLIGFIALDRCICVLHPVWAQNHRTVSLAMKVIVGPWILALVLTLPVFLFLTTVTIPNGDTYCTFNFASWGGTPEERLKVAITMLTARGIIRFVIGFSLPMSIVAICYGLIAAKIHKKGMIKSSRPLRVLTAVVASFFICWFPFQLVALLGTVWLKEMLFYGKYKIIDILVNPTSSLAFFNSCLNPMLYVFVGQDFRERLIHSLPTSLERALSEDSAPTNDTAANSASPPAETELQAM

`CNC(C)C(=O)c1ccc2c(c1)OCO2` (stereo not shown) [methylone, 3,4-methylenedioxy-N-methylcathinone] was tested, and the activity at 10 µM (168 GPCRs [1]; FPRL1, Antagonist mode, 10 uM) was 3.9%, the activity at 1 µM (168 GPCRs [1]; FPRL1, Antagonist, 1 uM) was 12.3% and the activity at 10 µM (168 GPCRs [2]) was -11.4%. For the same compound, the activity at 10 µM (168 GPCRs [3]; MRGPRX2, Antagonist mode, 10 uM) was 8.9%, the activity at 1 µM (168 GPCRs [3]; MRGPRX2, Antagonist, 1 uM) was 16.2% and the activity at 1 µM (168 GPCRs [4]) was -11.6%. The activity at 10 µM (168 GPCRs [5]; Antagonist mode, 10 uM) was 7.8%, the activity at 1 µM (168 GPCRs [5]; Antagonist, 1 uM) was 30.8% and the activity at 10 µM (168 GPCRs [6]; Antagonist mode, 10 uM) was 0.1%. It also gave an activity at 1 µM (168 GPCRs [6]; Antagonist, 1 uM) of 1.1%, an activity at 10 µM (168 GPCRs [7]; DRD3, Antagonist mode, 10 uM) of -17.8% and an activity at 1 µM (168 GPCRs [7]; DRD3, Antagonist, 1 uM) of -12%. For the same compound, the activity at 10 µM (168 GPCRs [8]; DRD4, Antagonist mode, 10 uM) was 12.2%, the activity at 1 µM (168 GPCRs [8]; DRD4, Antagonist, 1 uM) was 8.4% and the activity at 10 µM (168 GPCRs [9]; P2RY2, Antagonist mode, 10 uM) was 1.8%. For the same compound, the activity at 1 µM (168 GPCRs [9]; P2RY2, Antagonist, 1 uM) was 5.4%, the activity at 10 µM (168 GPCRs [10]; CXCR1, Antagonist mode, 10 uM) was 3.1% and the activity at 1 µM (168 GPCRs [10]; CXCR1, Antagonist, 1 uM) was 12.1%. It also gave an activity at 1 µM (168 GPCRs [11]; 1 uM) of -3.3%, an activity at 10 µM (168 GPCRs [11]; 10 uM) of -4.1% and an activity at 10 µM (168 GPCRs [12]; EDG4, Antagonist mode, 10 uM) of -21%. It also gave an activity at 1 µM (168 GPCRs [12]; EDG4, Antagonist, 1 uM) of -10.2%, an activity at 10 µM (168 GPCRs [13]; GPR35, Antagonist mode, 10 uM) of 7.3% and an activity at 1 µM (168 GPCRs [13]; GPR35, Antagonist, 1 uM) of 13.2%. It also gave an activity at 10 µM (168 GPCRs [14]; Antagonist mode, 10 uM) of -9.3%, an activity at 1 µM (168 GPCRs [14]; Antagonist, 1 uM) of -6.7% and an activity at 10 µM (168 GPCRs [15]; GPR92, Antagonist mode, 10 uM) of 5.8%. The activity at 1 µM (168 GPCRs [15]; GPR92, Antagonist, 1 uM) was -8%, the activity at 1 µM (168 GPCRs [16]; 1 uM) was -2.7% and the activity at 10 µM (168 GPCRs [16]; 10 uM) was -14.8%. The activity at 10 µM (168 GPCRs [17]; Antagonist mode, 10 uM) was -6.4%, the activity at 1 µM (168 GPCRs [17]; Antagonist, 1 uM) was -5.2% and the activity at 1 µM (168 GPCRs [18]; 1 uM) was 15.8%. It also gave an activity at 10 µM (168 GPCRs [18]; 10 uM) of 2%, an activity at 10 µM (168 GPCRs [19]; Antagonist mode, 10 uM) of -20.2% and an activity at 1 µM (168 GPCRs [19]; Antagonist, 1 uM) of -16.5%. For the same compound, the activity at 1 µM (168 GPCRs [20]; 1 uM) was -4.3%, the activity at 10 µM (168 GPCRs [20]; 10 uM) was -3.3% and the activity at 10 µM (168 GPCRs [21]; EDG3, Antagonist mode, 10 uM) was 13.6%. It also gave an activity at 1 µM (168 GPCRs [21]; EDG3, Antagonist, 1 uM) of 25.8%, an activity at 1 µM (168 GPCRs [22]; 1 uM) of 1.7% and an activity at 10 µM (168 GPCRs [22]; 10 uM) of -0.5%. The activity at 1 µM (168 GPCRs [23]; 1 uM) was -3%, the activity at 10 µM (168 GPCRs [23]; 10 uM) was 2.8% and the activity at 10 µM (168 GPCRs [24]; Antagonist mode, 10 uM) was 13.2%. The activity at 1 µM (168 GPCRs [24]; Antagonist, 1 uM) was 10.3%.
